In patent publication US10626112B2, “Heterocyclic sulfonamide derivative and medicine comprising same” (EA PHARMA CO., LTD., priority 2014, dated 2020):

Biological target: human TRPA1 (Homo sapiens (Human), UniProt O75762)
Experiment: Measurement of TRPA1 antagonist activity (2): as (1), different lot of human TRPA1 expression plasmid
Assay type: cell-based
Settings: 293T cells transfected with human TRPA1, allylisothiocyanate 20 μM stimulation, calcium fluorescence, read-out: hTRPA1 IC50
Description: Human embryonic kidney-derived 293T cells were cultured in Dulbecco's Modified Eagle Medium containing 10% fetal bovine serum, 10 unit penicillin, and 10 μg streptomycin, plated on a petri dish having a diameter of 10 cm at 3×10^6 cells, and cultured for 24 hr in a CO2 incubator. A reduced serum medium (manufactured by Invitrogen, trade name: OPTI-MEM, 600 μL), a gene transfer reagent (manufactured by Mirus Bio, trade name: Mirus TransIT-293, 18 μL), and human TRPA1 expression plasmid (6 μg) were mixed, the total amount of the mixture was added to the cells on the petri dish to allow for gene transfer. The cells were recovered about for 8 hr later, plated on a poly-D-lysine coated 384 well black/clear bottom plate at 12,000 cells/well, and cultured overnight.
Measurement of Intracellular Calcium Increase
The 384 well plate was recovered, and the medium was removed. A calcium-bonded fluorescent indicator (manufactured by Molecular Device, trade name: Calcium4 Assay Kit, 38 μL) dissolved in assay buffer (1×HBSS, 20 mM HEPES, pH 7.2) was added, and the cells were stained in a CO2 incubator for 1 hr. The cells were taken out at room temperature, stood for not less than 15 min, a test substance (10 μL) was added by a platereader FDSS7000 (Hamamatsu Photonics K.K.) equipped with a 384ch dispenser. After 10 min, allylisothiocyanate (12 μL) was further added at a final concentration of 20 μM, and changes in the relative fluorescence intensity after addition of allylisothiocyanate were measured for 5 min.
Test Substance Preparation
The test substance was dissolved in dimethyl sulfoxide and serially diluted with an assay buffer containing 0.1% bovine serum albumin (1×HBSS, 20 mM HEPES, pH 7.2) to a 4.8-fold concentration of the evaluation concentration. Allylisothiocyanate, which is a known TRPA1 activator, was dissolved in dimethyl sulfoxide to 100 mM, and further diluted 5-fold (100 μM) of the final concentration, like the test substance.
Calculation of Antagonist Activity
Under the test substance-free conditions, the maximum variation range of the fluorescence intensity before and after allylisothiocyanate stimulation was defined to be 100% activity rate, and the variation range before and after buffer stimulation was defined as 0% activity rate. The activity rate on addition of the test substance was determined, and the numerical value obtained by subtracting the activity rate from 100 was defined to be an inhibitory rate. IC50, which is the concentration of the test substance necessary for reaching the 50% inhibitory rate, was calculated from the sigmoid approximate curve by a spreadsheet software Excel-Fit.
Measurement of TRPA1 Antagonist Activity (2)
By a method similar to that in Experimental Example 1-1 except that the lot of human […] expression plasmid is different, the TRPA1 antagonist activity of the test substance was measured.

human TRPA1, sequence (O75762 whole entry): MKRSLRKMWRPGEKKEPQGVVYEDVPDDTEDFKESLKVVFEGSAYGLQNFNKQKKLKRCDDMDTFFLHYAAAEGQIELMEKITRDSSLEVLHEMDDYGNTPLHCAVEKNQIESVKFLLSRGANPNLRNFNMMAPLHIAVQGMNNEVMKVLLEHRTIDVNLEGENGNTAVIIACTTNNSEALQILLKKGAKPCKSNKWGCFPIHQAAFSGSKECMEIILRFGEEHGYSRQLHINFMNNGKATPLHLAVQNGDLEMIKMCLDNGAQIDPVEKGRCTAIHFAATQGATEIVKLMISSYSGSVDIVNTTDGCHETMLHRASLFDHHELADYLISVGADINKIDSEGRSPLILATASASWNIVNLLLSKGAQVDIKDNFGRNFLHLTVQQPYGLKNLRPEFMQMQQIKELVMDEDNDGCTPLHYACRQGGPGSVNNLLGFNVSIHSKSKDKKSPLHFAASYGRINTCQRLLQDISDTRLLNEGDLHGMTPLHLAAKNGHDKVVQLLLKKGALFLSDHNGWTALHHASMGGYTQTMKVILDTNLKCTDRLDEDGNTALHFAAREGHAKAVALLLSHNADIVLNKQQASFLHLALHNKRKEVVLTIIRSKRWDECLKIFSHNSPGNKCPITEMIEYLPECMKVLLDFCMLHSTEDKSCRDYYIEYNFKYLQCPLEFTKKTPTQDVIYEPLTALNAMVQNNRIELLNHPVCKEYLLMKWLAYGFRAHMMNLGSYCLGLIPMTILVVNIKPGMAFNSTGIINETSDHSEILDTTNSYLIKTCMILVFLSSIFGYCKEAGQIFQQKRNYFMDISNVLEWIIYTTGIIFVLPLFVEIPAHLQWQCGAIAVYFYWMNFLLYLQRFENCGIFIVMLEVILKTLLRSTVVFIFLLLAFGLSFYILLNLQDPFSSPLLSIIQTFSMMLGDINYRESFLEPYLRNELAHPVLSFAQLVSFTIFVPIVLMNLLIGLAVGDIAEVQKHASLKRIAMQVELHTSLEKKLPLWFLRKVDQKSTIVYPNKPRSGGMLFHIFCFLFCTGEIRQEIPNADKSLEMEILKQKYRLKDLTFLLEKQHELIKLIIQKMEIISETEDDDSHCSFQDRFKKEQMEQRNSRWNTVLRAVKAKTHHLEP

| SMILES | IC50 [µM] |
| --- | --- |
| C[C@H](NS(=O)(=O)c1cc2cc(F)ccc2o1)C(=O)NCc1cc(-c2ccc(C(F)(F)F)nc2)nc(N(C)C)n1 [Example 372, (2S)-N-[[2-(dimethylamino)-6-[6-(trifluoromethyl)-3-pyridyl]pyrimidin-4-yl]methyl]-2-[(5-fluorobenzofuran-2-yl)sulfonylamino]propanamide] | 0.027 |
| C[C@H](NS(=O)(=O)c1cc2cnccc2o1)C(=O)NCc1ccc(O)c(-c2ccc(C(F)(F)F)cn2)c1 [Example 373, (2S)-2-(furo[3,2-c]pyridin-2-ylsulfonylamino)-N-[[4-hydroxy-3-[5-(trifluoromethyl)-2-pyridyl]-phenyl]methyl]propanamide] | 0.079 |
| CC(C)N(CC(=O)NCc1ccc(O)c(-c2ccc(C(F)(F)F)cn2)c1)S(=O)(=O)c1cc2cnccc2o1 [Example 374, 2-[furo[3,2-c]pyridin-2-ylsulfonyl(isopropyl)amino]-N-[[4-hydroxy-3-[5-(trifluoromethyl)-2-pyridyl]-phenyl]methyl]acetamide] | 0.015 |
| C[C@H](NS(=O)(=O)c1cc2cc(F)ccc2o1)C(=O)NCc1cc(-c2ccc(C(F)(F)F)cc2O)nc(N(C)C)n1 [Example 377, (2S)-N-[[2-(dimethylamino)-6-[2-hydroxy-4-(trifluoromethyl)phenyl]-pyrimidin-4-yl]methyl]-2-[(5-fluorobenzofuran-2-yl)sulfonylamino]propanamide] | 0.11 |
| O=C(NCc1ccc(O)c(-c2ccc(C(F)(F)F)nn2)c1)[C@@H]1CCCN1S(=O)(=O)c1cc2ccccc2o1 [Example 380, (2S)-1-(benzofuran-2-ylsulfonyl)-N-[[4-hydroxy-3-[6-(trifluoromethyl)pyridazin-3-yl]phenyl]methyl]pyrrolidine-2-carboxamide] | 0.0031 |
| C[C@H](NS(=O)(=O)c1cc2cc(F)ccc2o1)C(=O)NCc1ccc(O)c(-c2ccc(C(F)(F)F)nn2)c1 [Example 381] | 0.02 |
| O=C(NCc1cc(-c2ccc(C(F)(F)F)cn2)ccn1)[C@@H]1CCN1S(=O)(=O)c1cc2ccccc2o1 [Example 385, (2S)-1-(benzofuran-2-ylsulfonyl)-N-[[4-[5-(trifluoromethyl)-2-pyridyl]-2-pyridyl]methyl]azetidine-2-carboxamide] | 0.013 |
| O=C(NCc1cc(-c2cnc(C(F)(F)F)nc2)ncn1)[C@@H]1CCN1S(=O)(=O)c1cc2cc(F)ccc2o1 [Example 387, (2S)-1-(5-fluorobenzofuran-2-yl)sulfonyl-N-[[6-[2-(trifluoromethyl)pyrimidin-5-yl]pyrimidin-4-yl]methyl]azetidine-2-carboxamide] | 0.055 |
| O=C(NCc1cc(-c2cnc(C(F)(F)F)nc2)ccn1)[C@@H]1CCN1S(=O)(=O)c1cc2cc(F)ccc2o1 [Example 389, (2S)-1-(5-fluorobenzofuran-2-yl)sulfonyl-N-[[4-[2-(trifluoromethyl)pyrimidin-5-yl]-2-pyridyl]methyl]azetidine-2-carboxamide] | 0.011 |
| O=C(NCc1ccc(O)c(-c2cnc(C(F)(F)F)cn2)c1)[C@@H]1CCN1S(=O)(=O)c1cc2cc(F)ccc2o1 [Example 390, (2S)-1-(5-fluorobenzofuran-2-yl)sulfonyl-N-[[4-hydroxy-3-[5-(trifluoromethyl)pyrazin-2-yl]phenyl]methyl]azetidine-2-carboxamide] | 0.0093 |
| O=C(NCc1cccc(-c2cnc(C(F)(F)F)cn2)c1)[C@@H]1CCN1S(=O)(=O)c1cc2cc(F)ccc2o1 [Example 392, (2S)-1-(5-fluorobenzofuran-2-yl)sulfonyl-N-[[3-[5-(trifluoromethyl)pyrazin-2-yl]phenyl]methyl]azetidine-2-carboxamide] | 0.0046 |

More lines, now with the values ahead:

| IC50 [µM] | SMILES |
| --- | --- |
| 0.013 | CN(C)c1nc(CNC(=O)[C@@H]2CCCN2S(=O)(=O)c2cc3cnccc3o2)cc(-c2ccc(C(F)(F)F)cc2)n1 [Example 375, (2S)-N-[[2-(dimethylamino)-6-[4-(trifluoromethyl)phenyl]-pyrimidin-4-yl]methyl]-1-furo[3,2-c]pyridin-2-ylsulfonyl-pyrrolidine-2-carboxamide] |
| 0.021 | CN(C)c1nc(CNC(=O)[C@@H]2CCCN2S(=O)(=O)c2cc3ccccc3o2)cc(-c2ccc(C(F)(F)F)cc2O)n1 [Example 376, (2S)-1-(benzofuran-2-ylsulfonyl)-N-[[2-(dimethylamino)-6-[2-hydroxy-4-(trifluoromethyl)phenyl]-pyrimidin-4-yl]methyl]pyrrolidine-2-carboxamide] |
| 0.0052 | CN(C)c1nc(CNC(=O)[C@@H]2CCCN2S(=O)(=O)c2cc3cc(F)ccc3o2)cc(-c2ccc(C(F)(F)F)cc2)n1 [Example 378, (2S)-N-[[2-(dimethylamino)-6-[4-(trifluoromethyl)phenyl]-pyrimidin-4-yl]methyl]-1-(5-fluorobenzofuran-2-yl)sulfonyl-pyrrolidine-2-carboxamide] |
| 0.019 | CN(C)c1nc(CNC(=O)[C@@H]2CCN2S(=O)(=O)c2cc3cc(F)ccc3o2)cc(-c2ccc(C(F)(F)F)cc2)n1 [Example 379, (2S)-N-[[2-(dimethylamino)-6-[4-(trifluoromethyl)phenyl]-pyrimidin-4-yl]methyl]-1-(5-fluorobenzofuran-2-yl)sulfonyl-azetidine-2-carboxamide] |
| 0.027 | Nc1nc(CNC(=O)[C@@H]2CCCN2S(=O)(=O)c2cc3cc(F)ccc3o2)cc(-c2ccc(C(F)(F)F)cc2)n1 [Example 382, (2S)-N-[[2-amino-6-[4-(trifluoromethyl)phenyl]-pyrimidin-4-yl]methyl]-1-(5-fluorobenzofuran-2-yl)sulfonyl-pyrrolidine-2-carboxamide] |
| 0.0097 | O=C(NCc1ccnc(-c2ccc(C(F)(F)F)cc2O)c1)[C@@H]1CCN1S(=O)(=O)c1cc2cc(F)ccc2o1 [Example 383, (2S)-1-(5-fluorobenzofuran-2-yl)sulfonyl-N-[[2-[2-hydroxy-4-(trifluoromethyl)phenyl]-4-pyridyl]methyl]azetidine-2-carboxamide] |
| 0.013 | CN(C)c1nc(CNC(=O)[C@@H]2CCN2S(=O)(=O)c2cc3cc(F)ccc3o2)cc(-c2ccc(C(F)(F)F)nc2)n1 [Example 384, (2S)-N-[[2-(dimethylamino)-6-[6-(trifluoromethyl)-3-pyridyl]pyrimidin-4-yl]methyl]-1-(5-fluorobenzofuran-2-yl)sulfonyl-azetidine-2-carboxamide] |
| 0.0066 | O=C(NCc1cc(-c2ccc(C(F)(F)F)cc2)ncn1)[C@@H]1CCN1S(=O)(=O)c1cc2ccccc2o1 [Example 386, (2S)-1-(benzofuran-2-ylsulfonyl)-N-[[6-[4-(trifluoromethyl)phenyl]-pyrimidin-4-yl]methyl]azetidine-2-carboxamide] |
| 0.0027 | O=C(NCc1cc(-c2ccc(C(F)(F)F)nc2)ncn1)[C@@H]1CCN1S(=O)(=O)c1cc2cc(F)ccc2o1 [Example 388, (2S)-1-(5-fluorobenzofuran-2-yl)sulfonyl-N-[[6-[6-(trifluoromethyl)-3-pyridyl]pyrimidin-4-yl]methyl]azetidine-2-carboxamide] |
| 0.026 | O=C(NCc1cc(-c2ccc(C(F)(F)F)cn2)cnn1)[C@@H]1CCN1S(=O)(=O)c1cc2cc(F)ccc2o1 [Example 391, (2S)-1-(5-fluorobenzofuran-2-yl)sulfonyl-N-[[5-[5-(trifluoromethyl)-2-pyridyl]pyridazin-3-yl]methyl]azetidine-2-carboxamide] |
| 0.0091 | O=C(NCc1cc(-c2cnc(C(F)(F)F)cn2)ccn1)[C@@H]1CCN1S(=O)(=O)c1cc2cc(F)ccc2o1 [Example 393, (2S)-1-(5-fluorobenzofuran-2-yl)sulfonyl-N-[[4-[5-(trifluoromethyl)pyrazin-2-yl]-2-pyridyl]methyl]azetidine-2-carboxamide] |
| 0.011 | O=C(NCc1cc(-c2ncc(C(F)(F)F)cn2)ccn1)[C@@H]1CCN1S(=O)(=O)c1cc2cc(F)ccc2o1 [Example 394, (2S)-1-(5-fluorobenzofuran-2-yl)sulfonyl-N-[[4-[5-(trifluoromethyl)pyrimidin-2-yl]-2-pyridyl]methyl]azetidine-2-carboxamide] |
| 0.0032 | O=C(NCc1cc(-c2ccc(OC(F)(F)F)cc2)ncn1)[C@@H]1CCN1S(=O)(=O)c1cc2cc(F)ccc2o1 [Example 395] |
| 0.0076 | O=C(NCc1cc(-c2ccc(C(F)(F)F)cn2)cnn1)[C@@H]1CCCN1S(=O)(=O)c1cc2cc(F)ccc2o1 [Example 396, (2S)-1-(5-fluorobenzofuran-2-yl)sulfonyl-N-[[5-[5-(trifluoromethyl)-2-pyridyl]pyridazin-3-yl]methyl]pyrrolidine-2-carboxamide] |
